From ChEMBL document CHEMBL1201862, “PubChem BioAssay data set” (2004) come the findings set out here.

Test systems include HCT-15; OVCAR-5; COLO 205; RPMI-8226; SK-OV-3; SNB-19; EKVX; CCRF-CEM; KM12; CAKI-1; OVCAR-3; HCT-116; K562; HOP-62; SN12C; UO-31; A549; SF-268; OVCAR-4; U-251.
Assay in all cases: NCI anticancer screen, dose series, 48 h

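Following 48 hours of exposure in 96-well plates, responses at five concentrations were used to interpolate endpoints linearly. At the GI50, growth is halved.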 The source made the active and inactive calls. Cut-off read from the data, not from the text of the source: active = GI50 up to about 1.1 µM and inactive = higher.

`N#Cc1c(NC(=S)NC(=O)c2ccccc2)nc2c(c1-c1ccccc1)CCC2`: the GI50 is greater than 100 µM with HCT-15; > 100 µM (inactive) in the experiment with OVCAR-5; > 100 µM (inactive) in the experiment with COLO 205; > 100 µM (inactive) in the experiment with RPMI-8226; > 100 µM (inactive) with SK-OV-3; > 100 µM (inactive) in the experiment on SNB-19. For the same compound, the GI50 in the experiment on EKVX was 24.5 µM (inactive); in the experiment on CCRF-CEM, > 100 µM (inactive); in the experiment with KM12, > 100 µM (inactive); in the experiment on CAKI-1, > 100 µM (inactive); in the experiment with OVCAR-3, > 100 µM (inactive); in the experiment with HCT-116, > 100 µM (inactive). Further, the GI50 in the experiment with K562 was > 100 µM (inactive); with HOP-62 it was > 100 µM (inactive); in the experiment with SN12C, 78.2 µM (inactive); in the experiment on UO-31 it was 8.67 µM (inactive); in the experiment with A549, > 100 µM (inactive); with SF-268 it was > 100 µM (inactive). The GI50 in the experiment on OVCAR-4 and with U-251 was > 100 µM (inactive) throughout.

Regarding `Cc1ccc(C2C(C(=O)C(C)(C)C)N2S(=O)(=O)c2ccc(C)cc2)cc1` (stereo not given), the GI50 in the experiment with HCT-15 is 22.3 µM; in the experiment with OVCAR-5, 21.3 µM (inactive); with COLO 205, 19.5 µM (inactive); in the experiment with RPMI-8226 it was 18.9 µM (inactive); with SK-OV-3, > 100 µM (inactive); in the experiment on SNB-19, 22.5 µM (inactive). The GI50 in the experiment with EKVX is 15.7 µM (inactive); in the experiment with CCRF-CEM, 22.6 µM (inactive); in the experiment with KM12, 34.5 µM (inactive); with CAKI-1, 26.4 µM (inactive); with OVCAR-3, 26.5 µM (inactive); in the experiment with HCT-116 it was 18.7 µM (inactive). The GI50 in the experiment on K562 is 25.3 µM (inactive); in the experiment with HOP-62 it was 33.5 µM (inactive); in the experiment on SN12C, 19.8 µM (inactive); in the experiment with UO-31 it was 18.4 µM (inactive); with A549 it was 40.3 µM (inactive); in the experiment with SF-268 it was 30.5 µM (inactive). In addition, the figures for the GI50 in the experiment on OVCAR-4 and in the experiment with U-251 were 30.1 µM (inactive) and 20.2 µM (inactive), respectively.

Regarding `O=c1c(C(c2ccc(Cl)cc2)c2c(O)c3ccccc3n(-c3ccccc3)c2=O)c(O)c2ccccc2n1-c1ccccc1`, the GI50 in the experiment with HCT-15 is 15.2 µM; in the experiment on OVCAR-5, > 100 µM (inactive); in the experiment on COLO 205 it was 30.8 µM (inactive); in the experiment with RPMI-8226 it was 14.6 µM (inactive); in the experiment on SK-OV-3, 61.8 µM (inactive); in the experiment with SNB-19, 17.7 µM (inactive). Besides, the GI50 in the experiment on EKVX was 17.2 µM (inactive); in the experiment on CCRF-CEM, 18.7 µM (inactive); with KM12 it was 68.4 µM (inactive); in the experiment with CAKI-1, 28.2 µM (inactive); in the experiment on OVCAR-3, 29 µM (inactive); in the experiment on HCT-116, 24.8 µM (inactive). Also, the GI50 in the experiment on K562 was 40.5 µM (inactive); with HOP-62 it was 28 µM (inactive); in the experiment with SN12C it was 19.1 µM (inactive); in the experiment on UO-31, 22 µM (inactive); with A549 it was 15.2 µM (inactive); in the experiment with SF-268 it was 16.9 µM (inactive). For the same compound, the GI50 is 32.1 µM (inactive) in the experiment on OVCAR-4 and 16.9 µM (inactive) in the experiment with U-251.
